Test results reported in patent US11241436B2, “Autophagy inducers for treatment of CNS conditions” (Northwestern University, priority 2017, dated 2022).

What was measured:
[1] = test system: 5XFAD mice; assay: Morris water maze test of 5XFAD mice; type: in vivo, mouse
Protocol: Escape latency and total distance traveled in visible platform test and hidden platform test are shown. N=10-11. Results represent mean±s.e.m. Two-way repeated measures ANOVA.
Escape latency and total distance traveled in visible platform test and hidden platform test are shown. Results represent mean±s.e.m. Statistics were analyzed by the IBM SPSS Statistics Tools comparing differences between 2 curves.
Morris water maze testing. For animal behavior, 6-month old mice were tested. The Morris water maze test consists of two sections: the visible platform testing and hidden platform testing. During the tests, mice were placed in the water tank filled with opaque water (maintained at 25° C.), with their heads facing toward the tank wall. In the visible platform section, a black platform extending 2 cm above the water level was used for these trials. For each trial, the platform was randomly positioned, and the mouse was placed in the tank at different start positions. The trial was stopped after the mouse found and climbed onto the platform, and the escape latency was recorded. […] Mice were tested for 4 days with eight trials per day. In the hidden platform section, a transparent platform underneath the water level was used instead of the black one during all trials, mice were tested with a fixed platform location over 5 days period with six trials per day, and they were allowed to search the platform in 60 s. In the tests, two parameters were evaluated: the trail duration (s) and distance to the platform (m).

[2] = test system: LC3 and p62/SQSTM1; assay: Western blot detection of LC3 and p62/SQSTM1 in mouse tissues; type: in vivo; settings: for LC3-II conversion / levels of p62 (SQSTM1): mouse brain
Protocol: WAT, white adipose tissue; BAT, brown adipose tissue.
Autophagy analyses. For assessment of autophagy in vivo, 8-week old male WT and Becn 1FA/FA mice crossed to GFP-LC3 mice were exercised for 90 minutes, or starved for 48 h, and then anaesthetized by isoflurane and perfused with 4% PFA Brain and muscle samples were fixed in 4% PFA overnight, 15% sucrose for 4 h and 30% sucrose overnight before frozen sections were prepared. The number of GFP-LC3 puncta per unit area of tissue was quantified by fluorescence microscopy. Autophagy in vivo was also analyzed by western blot analysis of brain tissue extracts with antibodies against LC3 and p62/SQSTM1 (see below for details).
(§1) Western blot analyses. Cell or mouse muscle and brain extracts were prepared in lysis buffer containing 50 mM Tris (pH 7.4), 150 mM NaCl, 1 mM EDTA, 1% Triton X-100, halt proteinase inhibitor cocktail (ThermoFisher Scientific) and halt phosphatase inhibitor cocktail (ThermoFisher Scientific), and subjected to western blot analysis with anti-LC3 (Novus Biologicals, NB100-2220), anti-SQSTM 1 (Abnova, H00008878-M01), anti-Af342 (Invitrogen; 700254), anti-APP (Biolegend; 803001), HRP-conjugated GFP antibody (Santa Cruz Biotechnology, sc9996), anti-HA (Cell Signaling Technology, C29F4), anti-ATG7 (Sigma Aldrich; A2856), anti-LDLR (Abeam, ab52818), anti-LRP 1 (Abeam, ab92544), and anti-ACTB/f3-actin-HRP (Santa Cruz Biotechnology, sc47778 HRP) antibodies. The band intensity was analyzed using the ImageJ software.

[3] = test system: Hela cells stably expressing GFP-LC3; assay: GFP-LC3 puncta in Hela cells stably expressing GFP-LC3, with or without bafilomycin A1; type: cell-based; settings: for numbers of GFP-LC3 puncta (autophagosomes): Hela cells, normal medium, compared with starvation; for accumulation of GFP-LC3 puncta, LC3-II and p62 (autophagic flux): co-treated with lysosomal inhibitor bafilomycin A1, compared to normal conditions
From the text: Results represent mean±s.e.m. Statistics are comparing the indicated value with or without BafA 1 to the one under the normal condition.
Accordingly, an important translational question is how to reduce Beclin 2 activity to maintain CB sensitivity and prevent drug tolerance induced by repeated cannabinoid exposure. To avoid the technical difficulty and risk of directly deleting Beclin 2 in vivo (such as injecting shRNAs or CRISPR/Cas9 constructs), which may disrupt Beclin 2-regulated autophagy, a novel and more convenient strategy to achieve the same goal via modulating the Beclin 2 interactome was developed and tested, which will not affect the essential autophagy function of Beclin 2 (FIG. 6A). Beclin 2 is present in two distinct protein complex pools, the Beclin 2-class Ill phosphatidylinositol 3-kinase complex for autophagy, and the Beclin 2-GASP1-GPCR complex in which Beclin 2-GASP1 binding is required for GPCR degradation. Thus, it was hypothesized that Beclin 2 is a limiting factor that regulates the balance between the two lysosomal degradation pathways, and that competitive recruitment of Beclin 2 to the autophagy machinery by activating autophagy prevents it from functioning in CB1R downregulation and thus restores CB1R functionality and reverses drug tolerance. To test this hypothesis, whether autophagy activation by brain-penetrable inducers inhibits the Beclin 2-GASP1 interaction was first examined. […] To determine autophagy activation by the two compounds, several markers of autophagy induction were analyzed, including formation of autophagosomes in cells and transgenic mice expressing GFP-tagged LC3 (an autophagosome marker), degradation of p62 (an autophagy substrate protein), and conversion of LC3 from the non-lipidated form (LC3-1) to the autophagosome-associated lipidated form (LC3-11). […]
To determine autophagy activation by the 2 compounds ML246 and Rg2, several markers of autophagy induction were analyzed, including formation of autophagosomes in cells and transgenic mice expressing GFP-tagged MAP1LC3/LC3 (microtubule-associated protein 1 light chain 3; an autophagosome marker), degradation of SQSTM1/p62 (sequestosome 1; an autophagy receptor and substrate protein), and conversion of LC3 from the non-lipidated form (LC3-I) to the phagophore- and autophagosome-associated lipidated form (LC3-II). […]

[4] = Brain penetration / pharmacokinetics study; settings: for brain penetration: mouse, in vivo
[5] = test system: Beclin 2-GASP1 binding; assay: Coimmunoprecipitation of endogenous GASP1 with endogenous Beclin 2 from mouse brain lysates; type: in vivo; settings: injection to WT mice
From the text: Lysates in each group were pooled from 3 mice.
Based on this model, the effect of these inducers on the Beclin 2-GASP1 interaction in vitro and in mouse brain were subsequently examined.

[6] = test system: APP; assay: Expression of the precursor APP in brain of 5XFAD mice; type: in vivo, mouse
Protocol: as §1

[7] = test system: CB1R signaling; assay: CB1R signaling in brain (phosphorylation of MEK and JNK) after chronic WIN; type: in vivo, mouse; settings: repeated WIN dosage 14 d, then acute WIN 1 h
Protocol: WT mice were treated with either daily WIN or vehicle for 14 d, and then subject to an acute dosage of WIN 1 h prior to collection of brain samples.
To investigate whether restoration of CB1R signaling underlies the behavioral regulation by autophagy activation, the level and functionality of CB1R in mouse brain after co-administration of chronic cannabinoids and autophagy inducers were analyzed. […] To determine whether the increased level of CB1R represents CB1R re-sensitization in the brain, the agonist-induced phosphorylation of signaling kinases downstream of CB1R after chronic WIN exposure were analyzed.

[8] = test system: Hela cells; assay: Western blot detection of LC3 and p62 in Hela cells; type: cell-based
Protocol: as §1

[9] = liver, muscle, brain, heart, white and brown adipose tissue

Row | Structure (SMILES) | performance during the hidden platform trials ([1]; 6-month old 5XFAD mice, ML246 daily for 5 weeks) | LC3-II conversion [2] | levels of p62 (SQSTM1) [2] | numbers of GFP-LC3 puncta (autophagosomes) [3] | accumulation of GFP-LC3 puncta, LC3-II and p62 (autophagic flux) [3] | brain penetration [4] | binding between endogenous Beclin 2 and endogenous GASP1 [5] | expression of the precursor APP ([6]; ML246 for 5 weeks) | CB1R (CNR1) signaling: phosphorylation of MEK and JNK [7] | levels of p62 (SQSTM1) [8] | escape latency and distance, hidden platform ([1]; 5XFAD mice, Rg2 for 4 months) | escape latency or distance, visible platform ([1]; WT, vehicle-treated and Rg2-treated mice) | LC3-I to LC3-II conversion [2, 9] | levels of SQSTM1 [2, 9] | brain level ([4]; 24 h postinjection) | time of peak brain level after injection ([4]; brain) | expression of the precursor APP ([6]; Rg2 for 16 weeks)
1 | N=c1c2c(-c3ccccc3)c(-c3ccccc3)n(Cc3ccccc3)c2ncn1[C@H]1CC[C@H](O)CC1 [ML246] | improved the performance | not detect significant changes | decreased | markedly increased | more accumulation | can pass the blood-brain barrier | dramatically decreased | not affected | rescued | decreased |  |  |  |  |  |  | 
2 | CC(C)=CCC[C@](C)(O)[C@H]1CC[C@]2(C)[C@@H]1[C@H](O)C[C@@H]1[C@@]3(C)CC[C@H](O)C(C)(C)[C@@H]3[C@@H](O[C@@H]3O[C@H](CO)[C@@H](O)[C@H](O)[C@H]3O[C@@H]3O[C@@H](C)[C@H](O)[C@@H](O)[C@H]3O)C[C@]12C [Rg2, ginsenoside Rg2] |  | not detect significant changes | decreased | markedly increased | more accumulation | able to enter the brain | dramatically decreased |  | rescued | decreased | significantly improved performance | no significant difference | increased | decreased levels | still detectable | 15 min | remained unaffected
